In ChEMBL document CHEMBL1201862, “PubChem BioAssay data set” (2004):
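All cell lines were grown in 96-well plates and treated with compound for 48 hours. GI50 = concentration required for 50% inhibition of growth.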 Active and inactive are the calls of the source. No stated cut-off is given here; in the data, active = GI50 up to about 1.1 µM and inactive = higher.

What was measured:
Assay in all cases: inhibition of tumour cell growth, NCI panel, 48 h
SR = system: SR
SNB-75 = system: SNB-75
SK-OV-3 = system: SK-OV-3
BT-549 = system: BT-549
MDA-MB-231 = system: MDA-MB-231
M14 = system: M14
KM12 = system: KM12
CAKI-1 = system: CAKI-1
UACC-257 = system: UACC-257
HCT-15 = system: HCT-15
HCC 2998 = system: HCC 2998
UO-31 = system: UO-31
HOP-62 = system: HOP-62
Hs-578T = system: Hs-578T
U-251 = system: U-251
SK-MEL-2 = system: SK-MEL-2
MOLT-4 = system: MOLT-4
RPMI-8226 = system: RPMI-8226
SF-295 = system: SF-295
DU-145 = system: DU-145
OVCAR-5 = system: OVCAR-5
A498 = system: A498
A549 = system: A549
SW-620 = system: SW-620
NCI-H460 = system: NCI-H460
NCI-H226 = system: NCI-H226
LOX IMVI = system: LOX IMVI
Malme-3M = system: Malme-3M
ACHN = system: ACHN
PC-3 = system: PC-3
SNB-19 = system: SNB-19
T47D = system: T47D
CCRF-CEM = system: CCRF-CEM
HCT-116 = system: HCT-116
SN12C = system: SN12C
NCI-H23 = system: NCI-H23
EKVX = system: EKVX
HOP-92 = system: HOP-92
OVCAR-4 = system: OVCAR-4
SF-268 = system: SF-268
786-0 = system: 786-0
MDA-MB-435 = system: MDA-MB-435
NCI-H522 = system: NCI-H522
SK-MEL-28 = system: SK-MEL-28
OVCAR-3 = system: OVCAR-3
IGROV-1 = system: IGROV-1
SK-MEL-5 = system: SK-MEL-5
UACC-62 = system: UACC-62
COLO 205 = system: COLO 205
HT-29 = system: HT-29
MDA-N = system: MDA-N
OVCAR-8 = system: OVCAR-8
SF-539 = system: SF-539
TK-10 = system: TK-10
NCI/ADR-RES = system: NCI/ADR-RES
MCF7 = system: MCF7
RXF 393 = system: RXF 393
HL-60 = system: HL-60
K562 = system: K562

Measured: GI50

O=C1CCCCC/C1=C\c1cccc(Cl)c1
32.2 µM: HCT-15
inactive: SR 20.4 µM | SNB-75 48.5 µM | SK-OV-3 > 100 µM | BT-549 43.2 µM | MDA-MB-231 > 100 µM | M14 32.4 µM | KM12 30.8 µM | CAKI-1 72.6 µM | UACC-257 42.1 µM | HCC 2998 41.7 µM | UO-31 24.1 µM | HOP-62 > 100 µM | Hs-578T 35.9 µM | U-251 47.2 µM | SK-MEL-2 46.5 µM | MOLT-4 27.4 µM | RPMI-8226 20 µM | SF-295 20 µM | DU-145 > 100 µM | OVCAR-5 > 100 µM | A498 > 100 µM | A549 63.2 µM | SW-620 20.8 µM | NCI-H460 29.6 µM | NCI-H226 34.4 µM | LOX IMVI 41.5 µM | Malme-3M 42.9 µM | ACHN 28.2 µM | PC-3 22.5 µM | SNB-19 > 100 µM | T47D > 100 µM | CCRF-CEM 4.06 µM | HCT-116 40.2 µM | SN12C 93.8 µM | NCI-H23 42.9 µM | EKVX 50.9 µM | HOP-92 35.6 µM | OVCAR-4 26.5 µM | SF-268 22 µM | 786-0 41.1 µM | MDA-MB-435 31 µM | NCI-H522 39.2 µM | SK-MEL-28 49.4 µM | OVCAR-3 71.3 µM | IGROV-1 46.2 µM | SK-MEL-5 25.4 µM | UACC-62 45.9 µM | COLO 205 35.3 µM | HT-29 38.6 µM | MDA-N 45.4 µM

Cc1cc(/N=C/c2c(CO)cnc(C)c2O)c(/N=C/c2c(CO)cnc(C)c2O)cc1C.[Zn+2]
inactive: SNB-75 > 100 µM | BT-549 > 100 µM | MDA-MB-231 > 100 µM | M14 > 100 µM | KM12 > 100 µM | CAKI-1 > 100 µM | OVCAR-8 > 100 µM | SF-539 > 100 µM | HCC 2998 > 100 µM | UO-31 > 100 µM | HOP-62 > 100 µM | Hs-578T > 100 µM | SK-MEL-2 > 100 µM | TK-10 > 100 µM | MOLT-4 > 100 µM | SF-295 > 100 µM | A498 > 100 µM | A549 > 100 µM | NCI-H460 > 100 µM | NCI-H226 > 100 µM | LOX IMVI > 100 µM | ACHN > 100 µM | SNB-19 > 100 µM | HCT-116 > 100 µM | HOP-92 > 100 µM | OVCAR-4 > 100 µM | NCI/ADR-RES > 100 µM | 786-0 > 100 µM | NCI-H522 > 100 µM | IGROV-1 > 100 µM | SK-MEL-5 > 100 µM | UACC-62 > 100 µM | COLO 205 > 100 µM | HT-29 > 100 µM | MDA-N > 100 µM

COc1cc(S(=O)(=O)Nc2ccc(-c3csc(N4C(=O)C(Cl)C4c4ccccc4O)n3)cc2)ccc1Cl (configuration not stated)
> 100 µM: HCT-15
inactive: MCF7 21 µM | RXF 393 19.9 µM | SR 4.82 µM | SNB-75 62.7 µM | SK-OV-3 > 100 µM | BT-549 29 µM | M14 50.9 µM | KM12 33 µM | CAKI-1 > 100 µM | OVCAR-8 53.6 µM | UACC-257 29.1 µM | SF-539 30.5 µM | HCC 2998 15.1 µM | UO-31 31.9 µM | HOP-62 > 100 µM | HL-60 21.8 µM | SK-MEL-2 37.8 µM | MOLT-4 9.59 µM | RPMI-8226 23.2 µM | SF-295 > 100 µM | DU-145 14.3 µM | OVCAR-5 47.8 µM | A549 > 100 µM | SW-620 32.3 µM | NCI-H460 47.5 µM | NCI-H226 37.8 µM | LOX IMVI 1.49 µM | Malme-3M 24.1 µM | ACHN 76.7 µM | PC-3 42.3 µM | SNB-19 > 100 µM | T47D 13.1 µM | CCRF-CEM 2.73 µM | HCT-116 30.3 µM | SN12C 33.1 µM | NCI-H23 23.6 µM | EKVX 15.4 µM | HOP-92 28 µM | OVCAR-4 26.4 µM | SF-268 25.8 µM | NCI/ADR-RES > 100 µM | 786-0 35.1 µM | MDA-MB-435 31.4 µM | NCI-H522 1.51 µM | SK-MEL-28 38.1 µM | K562 31 µM | OVCAR-3 > 100 µM | IGROV-1 11.9 µM | SK-MEL-5 37.1 µM | UACC-62 17 µM | COLO 205 23.9 µM | HT-29 36.8 µM | MDA-N 27.5 µM
active: Hs-578T 0.748 µM | A498 0.454 µM
